Results taken from patent publication US20110190365A1, “Insecticidal 4-phenyl-1H-pyrazoles” (Bayer Crop Science AG, priority 2008, published 2011).

Experiment: log P by HPLC on a reversed-phase column (C18), EEC Directive 79/831 Annex V.A8
Format: physicochemical
Conditions: HCOOH
Method: The stated log P values were determined in accordance with EEC Directive 79/831 Annex V.A8 by HPLC (High Performance Liquid Chromatography) using a reversed-phase column (C18).

SMILES	log P (HCOOH)
Cc1cc(-n2nc(C)c(-c3ccc(F)cc3F)c2N)ccc1C(=O)NCc1ccccn1 [I-A-Q2-370]	I-A-Q2-370: log P (HCOOH): 1.64
CC(NC(=O)c1ccc(-n2nc(C(F)(F)F)c(-c3cc(F)cc(Cl)c3)c2N)cc1)C(F)(F)F (stereo not shown) [I-A-Q2-084]	I-A-Q2-084: log P (HCOOH): 3.89
CC(NC(=O)c1ccc(-n2nc(C(F)(F)F)c(-c3cc(Cl)cc(Cl)c3)c2Br)cc1)C(F)(F)F (stereo not shown) [I-A-Q2-096]	I-A-Q2-096: log P (HCOOH): 5.35
Cc1cc(-n2nc(C(F)(F)F)c(-c3cccc(Br)c3)c2N)ccc1C(=O)NCC1CC1 [I-A-Q2-416]	I-A-Q2-416: log P (HCOOH): 3.81
Cc1cc(-n2nc(C(F)(F)F)c(-c3cc(Cl)cc(Cl)c3)c2N)ccc1C(=O)NC(C)C(F)(F)F (stereo not shown) [I-A-Q2-011]	I-A-Q2-011: log P (HCOOH): 4.54
Cc1cc(-n2nc(C(F)(F)F)cc2N)ccc1C(=O)NCc1ccccn1 [XI-A-089]	XI-A-089: log P (HCOOH): 2.45
Cc1cc(CNC(=O)c2ccc(-n3nc(C(F)(F)F)c(-c4cc(Cl)cc(Cl)c4)c3N)cc2C)[nH]n1 [I-A-Q2-259]	I-A-Q2-259: log P (HCOOH): 3.33
Cc1cc(-n2nc(C(F)(F)F)c(-c3ccc(Cl)cc3)c2N)ccc1C(=O)NCc1ccccn1 [I-A-Q2-345]	I-A-Q2-345: log P (HCOOH): 2.69
Cc1cc(-n2nc(C(F)(F)F)c(-c3cc(Cl)cc(Cl)c3)c2N)ccc1C(=O)N(C)Cc1cccnc1 [I-A-Q2-209]	I-A-Q2-209: log P (HCOOH): 3.02
CC(NC(=O)c1ccc(-n2nc(C(F)(F)F)c(-c3ccc(Cl)c(Cl)c3)c2N)cc1)C(F)(F)F (stereo not shown) [I-A-Q2-155]	I-A-Q2-155: log P (HCOOH): 4.11
Nc1c(-c2cccc(Cl)c2)c(C(F)(F)F)nn1-c1ccc(C(=O)NC2CCCCC2)cc1 [I-A-Q2-093]	I-A-Q2-093: log P (HCOOH): 4.00
CNC(=O)c1ccc(-n2nc(C(F)(F)F)c(-c3ccc(Cl)c(Cl)c3)c2N)cc1 [I-A-Q2-194]	I-A-Q2-194: log P (HCOOH): 3.37

Same assay, conditions: HCOOH; Table 4, compounds of formula I-A-Q4

SMILES	log P (HCOOH)
Nc1c(-c2cc(Cl)cc(Cl)c2)c(C(F)(F)F)nn1-c1ccc(C(=O)O)cc1 [I-A-Q4-087]	I-A-Q4-087: log P (HCOOH): 3.79
Nc1c(-c2cc(F)cc(Cl)c2)c(C(F)(F)F)nn1-c1ccc(C(=O)O)cc1 [I-A-Q4-100]	I-A-Q4-100: log P (HCOOH): 3.32
Cc1ccc(-c2c(C(F)(F)F)nn(-c3ccc(Cl)cn3)c2N)cc1 [I-A-Q4-055]	I-A-Q4-055: log P (HCOOH): 4.83
Nc1c(-c2cccc(Br)c2)c(C(F)(F)F)nn1-c1ccc(Cl)cn1 [I-A-Q4-052]	I-A-Q4-052: log P (HCOOH): 5.02
Cc1nn(-c2ccc(Cl)cn2)c(N)c1-c1ccc(F)cc1F [I-A-Q4-035]	I-A-Q4-035: log P (HCOOH): 3.78

Same assay, conditions: HCOOH; compounds of the formula (IX), Table 11

SMILES	log P (HCOOH)
Nc1[nH]nc(C(F)(F)F)c1-c1ccc(Cl)c(Cl)c1 [IX-38]	IX-38: log P (HCOOH): 2.80

Same assay, conditions: HPLC, reversed-phase C18, mobile phase with formic acid

SMILES	log P (HCOOH)
N#Cc1cc(-n2nc(C3CC3)c(-c3ccc(Cl)cc3)c2N)ccc1-n1cncn1 [I-A-Q1-064]	I-A-Q1-064: log P (HCOOH): 3.31
N#Cc1cc(-n2nc(C(F)(F)F)c(-c3cc(Cl)cc(Cl)c3)c2N)ccc1-n1cncn1 [I-A-Q1-024]	I-A-Q1-024: log P (HCOOH): 3.90
N#Cc1cc(-n2nc(C(F)(F)F)c(-c3cc(F)cc(Cl)c3)c2N)ccc1-n1cncn1 [I-A-Q1-037]	I-A-Q1-037: log P (HCOOH): 3.33
N#Cc1cc(-n2nc(C(F)(F)Oc3cccc(Cl)c3)c(-c3cc(Cl)cc(C(F)(F)F)c3)c2N)ccc1-n1cncn1 [I-A-Q1-072]	I-A-Q1-072: log P (HCOOH): 4.82
N#Cc1cc(-n2nc(C(F)(F)F)c(-c3cc(Cl)cc(Cl)c3)c2N)ccc1-n1cc(F)cn1 [I-A-Q1-092]	I-A-Q1-092: log P (HCOOH): 4.40
N#Cc1cc(-n2nc(C(F)(F)F)c(-c3ccc(F)c(F)c3)c2N)ccc1-n1cncn1 [I-A-Q1-044]	I-A-Q1-044: log P (HCOOH): 3.10
N#Cc1cc(-n2nc(C(F)(F)F)c(-c3ccc(Cl)c(F)c3)c2N)ccc1-n1cncn1 [I-A-Q1-032]	I-A-Q1-032: log P (HCOOH): 3.28
